Test results taken from US20210395313A1, “PEPTIDE PAC1 ANTAGONISTS” (AMGEN INC., priority 2017, published 2021).
Where a SMILES comes first, the peptide text is derived from it. Bridges are numbered along the chain shown (N, C = ends). Where no end group is shown, it is not given here.

What was measured:
human PAC1 receptor = target: T1, human PAC1 receptor (Homo sapiens, UniProt P41586); assay: LANCE Ultra cAMP accumulation antagonist assay in SHSY-5Y cells; type: cell-based;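 note: inhibition of cAMP accumulation evoked by PAC1 agonist at its EC80 in SHSY-5Y cells endogenously expressing receptor, 30 min preincubation then 15 min agonist, TR-FRET readout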
T1 construct: SHSY-5Y (human neuroblastoma cell line) and RG-2 (rat glioma cell line) cells endogenously express human and rat PAC1 receptors, respectively; endogenous in cells; host or cells: SHSY-5Y human neuroblastoma cells
T1 sequence (P41586 21-468): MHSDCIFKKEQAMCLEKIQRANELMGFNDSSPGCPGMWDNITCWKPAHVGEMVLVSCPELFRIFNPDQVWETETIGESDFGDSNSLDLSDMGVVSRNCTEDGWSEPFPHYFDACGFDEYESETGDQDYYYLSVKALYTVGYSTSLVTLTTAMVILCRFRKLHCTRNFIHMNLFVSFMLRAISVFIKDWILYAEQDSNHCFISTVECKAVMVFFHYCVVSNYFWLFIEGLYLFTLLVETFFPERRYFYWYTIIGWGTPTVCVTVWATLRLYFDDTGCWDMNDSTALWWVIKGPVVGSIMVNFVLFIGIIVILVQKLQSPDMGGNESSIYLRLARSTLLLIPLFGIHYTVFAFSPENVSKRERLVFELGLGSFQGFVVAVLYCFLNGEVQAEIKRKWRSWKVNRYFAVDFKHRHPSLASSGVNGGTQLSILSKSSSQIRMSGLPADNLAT

rat PAC1 receptor = target: T2, rat PAC1 receptor (Rattus norvegicus, UniProt P32215); assay: LANCE Ultra cAMP accumulation antagonist assay in RG-2 cells; type: cell-based;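 note: RG-2 rat glioma cells endogenously expressing PAC1, test peptide preincubated 30 min, then PAC1 agonist added at its EC80 for 15 min, cAMP accumulation read by LANCE Ultra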
T2 construct: SHSY-5Y (human neuroblastoma cell line) and RG-2 (rat glioma cell line) cells endogenously express human and rat PAC1 receptors, respectively; endogenous in cells; host or cells: RG-2 rat glioma cells
T2 sequence (P32215 20-523): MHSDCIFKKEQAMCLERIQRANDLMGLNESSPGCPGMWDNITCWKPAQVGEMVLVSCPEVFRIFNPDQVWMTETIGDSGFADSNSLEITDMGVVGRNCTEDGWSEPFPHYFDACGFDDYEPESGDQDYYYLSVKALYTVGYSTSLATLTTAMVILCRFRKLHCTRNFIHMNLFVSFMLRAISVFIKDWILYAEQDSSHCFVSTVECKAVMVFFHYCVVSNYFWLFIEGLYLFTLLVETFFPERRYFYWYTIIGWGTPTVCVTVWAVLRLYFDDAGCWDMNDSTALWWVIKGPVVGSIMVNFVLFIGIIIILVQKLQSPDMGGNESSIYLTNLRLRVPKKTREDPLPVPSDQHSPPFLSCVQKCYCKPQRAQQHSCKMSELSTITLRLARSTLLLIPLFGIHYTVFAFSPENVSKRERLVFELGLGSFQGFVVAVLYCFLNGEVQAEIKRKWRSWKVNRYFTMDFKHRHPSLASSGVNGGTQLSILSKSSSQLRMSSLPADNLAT
Procedure: In order to determine the potency of peptide antagonists at the PAC1 receptor, functional cAMP accumulation assays using LANCE Ultra cAMP assay kit to measure the agonist and antagonist activity of PAC1 peptides were used. SHSY-5Y (human neuroblastoma cell line) and RG-2 (rat glioma cell line) cells endogenously express human and rat PAC1 receptors, respectively. Agonist activity of PAC1 peptides was tested by incubating with SHSY-5Y at 2,000 cells per well or RG-2 at 5,000 cells per well for 15 minutes at room temperature. PAC1 receptor agonist PACAP38 or maxadilan was included as a positive control. The reaction was stopped by adding detection mixture, europium (Eu) chelate-labeled cAMP tracer and cAMP-specific monoclonal antibodies labeled with the ULight™ dye, to all wells followed by a 60-minute incubation at room temperature. The assay plates were then read on an EnVision instrument at an emission wavelength of 665 and 615 nm and data were analyzed using Genedata Screener or GraphPad Prism software. A similar procedure was used in the antagonist assays by using a fixed concentration of PAC1 agonist. The concentrations of agonists were chosen based on their ECK) values at PAC1 receptors in SHSY-5Y or RG-2 cells. SHSY-5Y or RG-2 cells were added into 96-well half-area white plates. Serially diluted PAC1 peptides at ten concentrations were added and incubated for 30 minutes at room temperature. PAC1 agonist at EC80 concentration was then added and further incubated for 15 minutes at room temperature. The reaction was stopped by adding detection mixture to all wells followed by a 60-minute incubation at room temperature. The assay plates were read and analyzed the same way as that of agonist assay. Cells, agonists, and PAC1 peptides were prepared in freshly made assay buffer (F-12, 0.5 mM IBMX, 0.1 or 0.4% BSA (pH 7.4)). Detection mixture was made by mixing a 1/50 dilution of the Eu-cAMP tracer stock solution in cAMP Detection Buffer and a 1/150 dilution of the ULight-anti-cAMP stock solution in cAMP Detection Buffer. Europium (Eu) chelate-labeled cAMP tracer, cAMP-specific monoclonal antibodies labeled with the ULight™ dye, BSA, and detection buffer were provided in LANCE Ultra cAMP Kit from PerkinElmer

Compound | IC50 (human PAC1 receptor) [nM] | IC50 (rat PAC1 receptor) [nM]
CC[C@H](C)[C@H](NC(=O)[C@H](C)NC(=O)[C@H](CCCCN)NC(=O)[C@H](CCCNC(=N)N)NC(=O)[C@H](Cc1ccccc1)NC(=O)[C@H](CCC(N)=O)NC(=O)[C@@H]1CSSC[C@H](N)C(=O)N[C@@H](CC(=O)O)C(=O)N[C@@H](C)C(=O)N[C@@H]([C@@H](C)O)C(=O)N1)C(=O)N[C@@H](CC(=O)O)C(=O)N[C@@H](CC(=O)O)C(=O)N[C@H]1CSSC[C@@H](C(=O)N[C@@H](CCSC)C(=O)N[C@@H](CCCCN)C(=O)N[C@@H](CCC(N)=O)C(=O)N[C@@H](CCCCN)C(=O)N[C@@H](CCCCN)C(=O)N[C@@H](CCCCN)C(=O)N[C@@H](CCC(=O)O)C(=O)N[C@@H](Cc2ccccc2)C(=O)N[C@@H](CCCCN)C(=O)N[C@@H](C)C(=O)NCC(=O)N[C@@H](Cc2ccc(O)cc2)C(=O)O)NC(=O)[C@H](C)NC(=O)[C@H](CCCCN)NC(=O)[C@H](Cc2ccccc2)NC(=O)[C@H](C(C)C)NC(=O)[C@H](CO)NC(=O)[C@H](CO)NC(=O)[C@H](Cc2c[nH]cn2)NC(=O)[C@H](Cc2c[nH]cn2)NC(=O)[C@H](C)NC(=O)[C@H](CCC(N)=O)NC(=O)[C@H](CCCCN)NC(=O)[C@H](C)NC1=O [compound 29] (H-CDATCQFRKAIDDCAKQAHHSSVFKACMKQKKKEFKAGY-OH; disulfide 1-5, 14-27) | 0.01 to 1 | 0.01 to 1
CDATCQFRKAIDDCVYSAWHANVPGSVFKACMKQKKKEFKAG-NH2 (disulfide 1-5, 14-31) [compound 137] | 0.01 to 1 | 0.01 to 1
CDATCQFRKAIDDCARQAHHANVPGSVFKACMKQKKKEWKAGH (disulfide 1-5, 14-31) [compound 8] | 0.01 to 1 | 0.01 to 1
CDATCQFRKAIDDCVRQAHHSNVPGSVFKACMKQKKKEWKAG-NH2 (disulfide 1-5, 14-31) [compound 79] | 0.01 to 1 | < 0.01
CC[C@H](C)[C@H](NC(=O)[C@H](C)NC(=O)[C@H](CCCCN)NC(=O)[C@H](CCCNC(=N)N)NC(=O)[C@H](Cc1ccccc1)NC(=O)[C@H](CCC(N)=O)NC(=O)[C@@H]1CSSC[C@H](NC(C)=O)C(=O)N[C@@H](CC(=O)O)C(=O)N[C@@H](C)C(=O)N[C@@H]([C@@H](C)O)C(=O)N1)C(=O)N[C@@H](CC(=O)O)C(=O)N[C@@H](CC(=O)O)C(=O)N[C@H]1CSSC[C@@H](C(=O)N[C@@H](CCSC)C(=O)N[C@@H](CCCCN)C(=O)N[C@@H](CCC(N)=O)C(=O)N[C@@H](CCCCN)C(=O)N[C@@H](CCCCN)C(=O)N[C@@H](CCCCN)C(=O)N[C@@H](CCC(=O)O)C(=O)N[C@@H](Cc2ccccc2)C(=O)N[C@@H](CCCCN)C(=O)N[C@@H](C)C(N)=O)NC(=O)C(C)(C)NC(=O)[C@H](CCCCN)NC(=O)[C@H](Cc2ccccc2)NC(=O)[C@H](C(C)C)NC(=O)[C@H](CO)NC(=O)CNC(=O)[C@@H]2CCCN2C(=O)[C@H](C(C)C)NC(=O)[C@H](CC(N)=O)NC(=O)[C@H](CO)NC(=O)[C@H](Cc2c[nH]cn2)NC(=O)[C@H](Cc2c[nH]cn2)NC(=O)[C@H](C)NC(=O)[C@H](CCC(N)=O)NC(=O)[C@H](CCCCN)NC(=O)[C@H](CCC(N)=O)NC1=O [SEQ ID NO 249] | 1 to 100 | 0.01 to 1
CDATCQFRKAIDDCYYRSWHANVPGSVFKACMKQKKKEWKAGN (disulfide 1-5, 14-31) [compound 62] | 1 to 100 | 0.01 to 1
CDATCQFRKAIDDCARQAHHSNVPGSVFKLCMKQKKKEWKAGH (disulfide 1-5, 14-31) [compound 23] | 0.01 to 1 | < 0.01
CDATCQFRKAIDDCVRQAHHSNVPGSVFKACMKQKKKEWKAGY (disulfide 1-5, 14-31) [SEQ ID NO 86] | 0.01 to 1 | 0.01 to 1
CDATCQFRKAIDDCMWYSRHSNVPGSVFKACMKQKKKEFKAG-NH2 (disulfide 1-5, 14-31) [compound 121] | 0.01 to 1 | 0.01 to 1
CDATCQFRKAIDDCVYSAWHSNVPGSVFKACMKQKKKEFKAG-NH2 (disulfide 1-5, 14-31) [compound 83] | 0.01 to 1 | 0.01 to 1
CC[C@H](C)[C@H](NC(=O)[C@H](C)NC(=O)[C@H](CCCCN)NC(=O)[C@H](CCCNC(=N)N)NC(=O)[C@H](Cc1ccccc1)NC(=O)[C@H](CCC(N)=O)NC(=O)[C@@H]1CSSC[C@H](N)C(=O)N[C@@H](CC(=O)O)C(=O)N[C@@H](C)C(=O)N[C@@H]([C@@H](C)O)C(=O)N1)C(=O)N[C@@H](CC(=O)O)C(=O)N[C@@H](CC(=O)O)C(=O)N[C@H]1CSSC[C@@H](C(=O)N[C@@H](CCSC)C(=O)N[C@@H](CCCCN)C(=O)N[C@@H](CCC(N)=O)C(=O)N[C@@H](CCCCN)C(=O)N[C@@H](CCCCN)C(=O)N[C@@H](CCCCN)C(=O)N[C@@H](CCC(=O)O)C(=O)N[C@@H](Cc2c[nH]c3ccccc23)C(=O)N[C@@H](CCCCN)C(=O)N[C@@H](C)C(=O)NCC(=O)N[C@@H](Cc2ccc(O)cc2)C(=O)O)NC(=O)[C@H](C)NC(=O)[C@H](CCCCN)NC(=O)[C@H](Cc2ccccc2)NC(=O)[C@H](C(C)C)NC(=O)[C@H](CO)NC(=O)[C@H](CO)NC(=O)[C@H](Cc2c[nH]cn2)NC(=O)[C@H](Cc2c[nH]cn2)NC(=O)[C@H](C)NC(=O)[C@H](CCC(N)=O)NC(=O)[C@H](CCCNC(=N)N)NC(=O)[C@H](C(C)C)NC1=O [compound 3] (H-CDATCQFRKAIDDCVRQAHHSSVFKACMKQKKKEWKAGY-OH; disulfide 1-5, 14-27) | 0.01 to 1 | 0.01 to 1
CDATCQFRKAIDDCARQAHHSNVPGSVFKACSKQKKKEWKAGH (disulfide 1-5, 14-31) [compound 40] | 1 to 100 | 1 to 100
CDATCQFRKAIDDCFYQAWHSNVPGSVWKACMKFRFNVWKAG-NH2 (disulfide 1-5, 14-31) [compound 55] | 1 to 100 | 0.01 to 1
CDATCQFRKAIDDCYYRSWHSNVPGSVFKACMKFRFNVWKAG-NH2 (disulfide 1-5, 14-31) [compound 67] | 1 to 100 | 0.01 to 1
CC[C@H](C)[C@H](NC(=O)[C@H](C)NC(=O)[C@H](CCCCN)NC(=O)[C@H](CCCNC(=N)N)NC(=O)[C@H](Cc1ccccc1)NC(=O)[C@H](CCC(N)=O)NC(=O)[C@@H]1CSSC[C@H](NC(C)=O)C(=O)N[C@@H](CC(=O)O)C(=O)N[C@@H](C)C(=O)N[C@@H]([C@@H](C)O)C(=O)N1)C(=O)N[C@@H](CC(=O)O)C(=O)N[C@@H](CC(=O)O)C(=O)N[C@H]1CSSC[C@@H](C(=O)N[C@@H](CCSC)C(=O)N[C@@H](CCCCN)C(=O)N[C@@H](CCC(N)=O)C(=O)N[C@@H](CCCCN)C(=O)N[C@@H](CCCCN)C(=O)N[C@@H](CCCCN)C(=O)N[C@@H](CCC(=O)O)C(=O)N[C@@H](Cc2ccccc2)C(=O)N[C@@H](CCCCN)C(=O)N[C@@H](C)C(=O)NCC(N)=O)NC(=O)C(C)(C)NC(=O)[C@H](CCCCN)NC(=O)[C@H](Cc2ccccc2)NC(=O)[C@H](C(C)C)NC(=O)[C@H](CO)NC(=O)CNC(=O)[C@@H]2CCCN2C(=O)[C@H](C(C)C)NC(=O)[C@H](CC(N)=O)NC(=O)[C@H](CO)NC(=O)[C@H](Cc2c[nH]cn2)NC(=O)[C@H](Cc2c[nH]cn2)NC(=O)[C@H](C)NC(=O)[C@H](CCC(N)=O)NC(=O)[C@H](CCCCN)NC(=O)[C@H](CCC(N)=O)NC1=O [SEQ ID NO 253] | 0.01 to 1 | 0.01 to 1
CDATCQFRKAIDDCYYYAMHSNVPGSVWKACMKQKKKEFKAG-NH2 (disulfide 1-5, 14-31) [compound 150] | 0.01 to 1 | 0.01 to 1
CDATCQFRKAIDDCARQAHHSNVPGSVWKACMKQKKKEWKAGH (disulfide 1-5, 14-31) [SEQ ID NO 105] | 0.01 to 1 | 0.01 to 1
CDATCFFRKVIDDCYYRSWHSNVPGSVFKACMKQLKKRWQAG-NH2 (disulfide 1-5, 14-31) [compound 70] | 1 to 100 | 1 to 100
CDATCQFRKAIDDCYWIAMHSNVPGSVWKACMKQKKKEFKAG-NH2 (disulfide 1-5, 14-31) [compound 147] | 0.01 to 1 | 0.01 to 1
CDATCQFRKAIDECARQAHHSNVPGSVFKACMKQKKKEWKAGH (disulfide 1-5, 14-31) [compound 25] | 0.01 to 1 | < 0.01
